Test results as given in paper PMC10757563 (Nature chemical biology, 2023).

Tested on: ribosome
Experiment: Toeprinting analysis of ribosome arrest during in vitro translation
Format: biochemical
Conditions: model yrbA-fs15 ORF with UAG stop codon; 50 μM

C=C[C@]1(C)C[C@@H](OC(=O)CS[C@@H]2C[C@H]3CC[C@@H](C2)N3C)[C@]2(C)[C@H](C)CC[C@]3(CCC(=O)[C@H]32)[C@@H](C)[C@@H]1O [retapamulin]
ribosome arrest site (toeprint): ribosomes arrested at the start codon
